Assays:
[1] = tested on: partial sciatic nerve ligation model in rats; assay: Analgesic effect in a Seltzer model (partial sciatic nerve ligation), mechanical allodynia by von Frey filaments; format: in vivo; conditions: 1 h, rat, oral, reversal of mechanical allodynia, approximately 1 to 5 hours after administration
Description: Preparation of Partial Sciatic Nerve Ligation Model in Rats
Rats were anaesthetized using isoflurane/O2 inhalation anaesthesia. After induction of anesthesia, the left thigh was shaved. An incision was made in the skin just below the hip bone. The muscle was bluntly dissected to expose the sciatic nerve. About one half (½) of the sciatic nerve thickness was tightly ligated with a nylon thread and the wound was closed. The right thigh was used as a sham-operated control. The right thigh underwent an identical procedure with the left hind limb, however, the sciatic nerve was not manipulated or ligated.
Two weeks after nerve ligation, the effect on mechanical allodynia was assessed using a series of von Frey filaments. For habituation, the rats were placed into a plastic cage on a wire mesh bottom. Von Frey filaments (0.4 to 26 g) were applied to the plantar surface of the rat hind paws from the wire mesh side, and the value of the filament pressure at which the paw was withdrawn was used as a pain threshold. The measurement of mechanical sensitivity of the right and left hind paws was performed to obtain predose mechanical sensitivity. The rats showing the threshold change from 0.6 to 2 g (in nerve ligated side) and 8 to 15 g (in sham operated side) were used in the experiments. On the day before the experiment, the rats were evaluated with a series of von Frey filaments to familiarize them with the test procedure. The adopted animal was administrated with the compounds of the present invention. The compounds of the present invention were homogenized with mortar and pestle and suspended or diluted in 0.5% Methyl Cellulose to prepare 0.03-100 mg/2 mL/kg suspension and orally administered to rat using a syringe attached with a sonde. Post-dose mechanical sensitivities of the right and left hind paws were measured at approximately 1 to 5 hours after drug administration. Percent reversal of mechanical allodynia for each rat was calculated using the following formula. The analgesic effects of the compounds were compared.

human PXR = human PXR (Homo sapiens (Human), UniProt O75469); assay: Evaluation of activation of human pregnane X receptor (PXR), DPX2 cells; format: cell-based; conditions: 48 hours, emission intensity divided by fluorescence intensity; for PXR 10 μM: compound 10 μM; for PXR 50 μM: compound 50 μM
Sequence of human PXR (O75469 whole entry): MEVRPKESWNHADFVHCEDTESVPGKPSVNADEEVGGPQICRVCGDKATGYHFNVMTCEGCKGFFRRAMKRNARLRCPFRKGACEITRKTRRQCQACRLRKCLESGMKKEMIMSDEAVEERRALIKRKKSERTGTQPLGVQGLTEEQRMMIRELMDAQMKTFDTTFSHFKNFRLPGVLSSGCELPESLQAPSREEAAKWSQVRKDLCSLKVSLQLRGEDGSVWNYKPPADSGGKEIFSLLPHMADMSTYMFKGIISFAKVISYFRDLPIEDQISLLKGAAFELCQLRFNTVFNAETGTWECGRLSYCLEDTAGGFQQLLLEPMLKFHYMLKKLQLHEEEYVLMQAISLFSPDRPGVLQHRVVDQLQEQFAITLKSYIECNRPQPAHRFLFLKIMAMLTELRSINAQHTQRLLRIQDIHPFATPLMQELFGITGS
Experimental: A Human PXR activation (Puracyp, Inc.) kit was used for evaluation.
DPX2 cells expressing human PXR were seeded in a 96-well plate at a concentration of 40000 cells/well and cultured at 37° C. under 5% carbon dioxide for 24 hours (medium: culture medium for DPX2 cells containing 10% fetal bovine serum, antibiotics, sodium pyruvate, D-glucose, and phenol red). After culture for 24 hours, a DMSO solution of the compound of the present invention was diluted with a medium (dosing medium for DPX2 cells containing 10% fetal bovine serum, D-glucose, antibiotics, sodium pyruvate, and L-glutamine) so that the final concentration was 10 and 50 μM, and a rifampicin DMSO solution as a positive control drug was 0.2, 1, 2, and 20 μM. The medium was removed from the 96-well plate after culture for 24 hours. 100 μL of the solution of the compound of the present invention and 100 μL of the rifampicin solution prepared were added to each well, and cultured for 48 hours. The medium was removed from the 96-well plate after culture for 48 hours. 100 μL of each reaction mixture obtained by adding 5.25 μL of CellTiter-Fluor to 10.5 mL of TubeE was filled therein. The plate was set in a plate reader (PerkinElmer, Inc.) after culture for 1 hour to measure the fluorescence intensity at an interval of 0.1 seconds per well. The plate was taken out. 100 μL of a solution obtained by adding ONE-Glo Assay Substrate to ONE-Glo Assaybuffer was added to each well. After 2 minutes from the addition of the solution, the plate was set in the plate reader to measure the […] at an interval of 2 seconds per well. The PXR activity of the product of the present invention was a value obtained by dividing the emission intensity by the fluorescence intensity.

human P2X7 receptor = human P2X7 receptor (Homo sapiens (Human), UniProt Q99572, R270H); assay: Evaluation of a human P2X7 receptor inhibitory activity (Yo-Pro uptake, BzATP stimulation, FLIPR TETRA); format: cell-based; conditions: 1321N1 cells stably expressing human P2X7 receptor, Yo-Pro fluorescence
Sequence of human P2X7 receptor (Q99572 whole entry R270H): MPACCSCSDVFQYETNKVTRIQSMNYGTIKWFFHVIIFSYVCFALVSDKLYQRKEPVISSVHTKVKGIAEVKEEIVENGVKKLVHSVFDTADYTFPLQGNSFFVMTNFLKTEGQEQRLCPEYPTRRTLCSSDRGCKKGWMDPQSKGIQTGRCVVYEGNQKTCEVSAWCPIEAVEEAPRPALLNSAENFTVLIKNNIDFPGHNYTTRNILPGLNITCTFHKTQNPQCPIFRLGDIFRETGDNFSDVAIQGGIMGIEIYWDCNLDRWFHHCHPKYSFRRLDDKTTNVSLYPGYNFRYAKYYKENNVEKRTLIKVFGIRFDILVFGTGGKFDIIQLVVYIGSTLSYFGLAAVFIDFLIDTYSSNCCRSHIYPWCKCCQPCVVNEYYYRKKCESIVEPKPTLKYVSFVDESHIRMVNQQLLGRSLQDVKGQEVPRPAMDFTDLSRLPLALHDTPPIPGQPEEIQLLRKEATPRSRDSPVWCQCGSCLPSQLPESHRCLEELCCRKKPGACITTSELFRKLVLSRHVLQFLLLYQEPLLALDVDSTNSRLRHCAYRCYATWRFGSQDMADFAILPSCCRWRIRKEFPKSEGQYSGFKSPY
Procedure, shortened: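 1321N1 cells stably expressing human P2X7 (T606C/G952A SNP variant) in HBSS/HEPES pH 7.4–7.5 were loaded with Yo-Pro and stimulated with BzATP on FLIPR TETRA. Compound was added 8 min later and fluorescence followed for 20 min. Inhibition scaled between no-compound (0%) and reference compound (100%); IC50 by logistic fit, reported in bins A–D.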

Compound	inhibition in vivo at 1 mg/kg [1] [%]	PXR 10 μM (human PXR)	PXR 50 μM (human PXR)	IC50 (human P2X7 receptor) [nM]	IC50 (human P2X7 receptor; class symbols) [nM]	inhibition in vivo at 3 mg/kg [1] [%]
COCc1ccc(C)c(NC2=NC(=O)N(C)C3=NCC(c4cc(F)c(F)c(F)c4)N23)c1 (stereo not drawn) [Compound I-0201]	51	4	13.5	26	–	–
Cc1ccc(C#N)cc1NC1=NC(=O)N(C)C2=NCC(c3cc(F)c(F)c(F)c3)N12 (stereo not drawn) [Compound I-0145]	58	1.9	6.2	19	10 to 100	–
CN1C(=O)N=C(NCc2ccccc2)N2C1=NCC2c1cc(F)c(F)c(F)c1 (stereo not drawn) [Compound I-0188]	–	1.3	3.5	7.6	–	–
CCc1ccc(CO)cc1NC1=NC(=O)N(C)C2=NCC(c3cc(F)c(F)c(F)c3)N12 (stereo not drawn) [Compound I-0176]	–	1.1	2	20	–	–
COCCOc1ccc(C)c(NC2=NC(=O)N(C)C3=NCC(c4cc(F)c(F)c(F)c4)N23)c1 (stereo not drawn) [Compound I-0158]	47	1.2	4.7	27	–	–
CCc1nc(OC)ccc1NC1=NC(=O)N(C)C2=NCC(c3cc(F)c(F)c(F)c3)N12 (stereo not drawn) [Compound I-0154]	44	7.9	15.8	17	–	–
COc1nc(C)c(NC2=NC(=O)N(C)C3=NCC(c4cc(F)c(F)c(F)c4)N23)cc1F (stereo not drawn) [Compound I-0162]	–	6.7	20	19	–	–
Cc1ccc(CO)cc1NC1=NC(=O)N(C)C2=NCC(c3cc(F)c(F)c(F)c3)N12 (stereo not drawn) [Compound I-0161]	51	1.2	2.5	19	–	–
Cc1cc2c(cc1NC1=NC(=O)N(C)C3=NCC(c4cc(F)c(F)c(F)c4)N13)COC2 (stereo not drawn) [Compound I-0164]	47	10.6	25	28	–	–
COc1ccc(NC2=NC(=O)N(C)C3=NCC(c4cc(F)c(F)c(F)c4)N23)c(C)c1F (stereo not drawn) [Compound I-0147]	33	–	–	24	10 to 100	–
COc1ccc(C)c(NC2=NC(=O)N(C)C3=NCC(c4cc(F)c(F)c(F)c4)N23)c1 (stereo not drawn) [Compound I-0142]	–	5.8	13	–	10 to 100	–
Cc1ccc(OCCO)cc1NC1=NC(=O)N(C)C2=NCC(c3cc(F)c(F)c(F)c3)N12 (stereo not drawn) [Compound I-0171]	52	1.2	2.5	–	–	–
Cc1cc2c(cc1Nc1nc(=O)c(F)c3n1C(c1cc(F)cc(F)c1)CC3)COC2 (stereo not drawn) [Compound I-0102]	–	–	–	11	–	55
COc1cc(NC2=NC(=O)N(C)C3=NCC(c4cc(F)c(F)c(F)c4)N23)c(C)cc1F (stereo not drawn) [Compound I-0149]	41	–	–	21	–	–
Cc1ccc(OC(F)F)cc1NC1=NC(=O)N(C)C2=NCC(c3cc(F)c(F)c(F)c3)N12 (stereo not drawn) [Compound I-0192]	50	7.9	15	18	–	–
Cc1cc(F)c(CO)cc1NC1=NC(=O)N(C)C2=NCC(c3cc(F)c(F)c(F)c3)N12 (stereo not drawn) [Compound I-0168]	53	0.9	1.7	–	–	–
COc1ccc(NC2=NC(=O)N(C)C3=NCC(c4cc(F)c(F)c(F)c4)N23)c(C)c1 (stereo not drawn) [Compound I-0135]	–	3	9	–	10 to 100	52
CCc1ccc(CO)cc1NC1=NC(=O)N(C)C2=NCC(Cc3ccccc3)N12 (stereo not drawn) [Compound I-0183]	–	–	–	–	100 to 500	–
COc1ccc(Nc2nc(=O)c(Cl)c3n2C(c2cc(F)cc(F)c2)CC3)c(C)n1 (stereo not drawn) [Compound I-0085]	–	–	–	–	10 to 100	–
COc1cc(C)c(Nc2nc(=O)cc3n2C(c2ccc(F)c(F)c2)CC3)cc1OC (stereo not drawn) [Compound I-0025]	–	–	–	–	10 to 100	–
Cc1ccc(C)c(NC2=NC(=O)N(C)C3=NCC(Cc4ccccc4)N23)c1 (stereo not drawn) [Compound I-0177]	–	–	–	–	100 to 500	–
COc1cc(C)c(NC2=NC(=O)N(C)C3=NCC(c4ccc(F)c(F)c4)N23)cc1OC (stereo not drawn) [Compound I-0126]	–	–	–	–	10 to 100	–
COc1ccc(Nc2nc(=O)c(OC)c3n2C(c2ccccc2)CC3)c(C)c1 (stereo not drawn) [Compound I-0052]	–	–	–	–	10 to 100	–
Cc1ccc(CO)cc1NC1=NC(=O)N(C)C2=NCC(Cc3ccccc3)N12 (stereo not drawn) [Compound I-0179]	–	–	–	–	100 to 500	–
COc1cc(C)c(Nc2nc(=O)c(F)c3n2C(c2ccc(F)cc2)CN3C)cc1OC (stereo not drawn) [Compound I-0152]	–	–	–	–	10 to 100	–

Source: US11066409B2, “Bicyclic nitrogen-containing heterocyclic derivatives and pharmaceutical composition comprising the same” (Shionogi & Co., Ltd., priority 2016, dated 2021)
